# Test results: patent publication US11780845B2 (Relay Therapeutics, Inc., priority 2019, dated 2023)
# Test system: SNU-16
# Experiment: Cell SNU-16 assay
# Assay type: cell-based
# Conditions: Homo sapiens, SNU-16, SNU-16 cells
row,IC50 [nM],SMILES
1,250 to 1000,"C#Cc1ccc(-c2c(C3=CC[C@@H](C(=O)N4CCCC4)CC3)c3cncnc3n2C)c(C)n1 (single isomer, unassigned) [Example 1208]"
2,≤ 100,C=C(C)c1nc(-c2ccc(-c3c(-c4ccccc4)c4c(N)ncnc4n3C)cc2)no1 [Example 1172]
3,≤ 100,C#Cc1ccc(-c2c(-c3ccc(Oc4nccc(C)n4)c(F)c3)c3c(N)ncnc3n2C(C)C)c(C)n1 [Example 1214]
4,100 to 250,C#Cc1cc(C)c(-c2c(C3=CC[C@H](C(=O)N4CCC[C@H]4C)CC3)c3c(N)ncnc3n2C)cn1 [Example 1249]
5,≤ 100,C#Cc1cc2c(cn1)-c1c(-c3ccc(Oc4nccc(C)n4)cc3)c3c(N)ncnc3n1CCC2 [Example 1391]
6,1000 to 100000,C=C(C)C(=O)Nc1ccc(-c2c(-c3ccc4c(C(=O)NCC5CC5)n[nH]c4c3)c3c(N)ncnc3n2C)cc1 [Example 1324]
7,≤ 100,"C=C(C)C(=O)Nc1ccc(-c2c(C3=CC[C@]4(CC3)Cc3ccc(C)nc3C4=O)c3c(N)ncnc3n2C)cc1 (single isomer, unassigned) [Example 1367]"
8,≤ 100,C#Cc1cnc2c(cc(-c3c(-c4ccc(Oc5nccc(C)n5)c(F)c4)c4c(N)ncnc4n3C)n2C)n1 [Example 1413]
9,250 to 1000,C#Cc1cc(-c2c(-c3ccccc3)c3c(N)ncnc3n2C)ccn1 [Example 1193]
10,1000 to 100000,"C=CC(=O)N[C@@H]1Cc2ccc(-c3c(-c4ccc(Oc5nccc(C)n5)cc4)c4c(N)ncnc4n3C)cc2C1 (single isomer, unassigned) [Example 927]"
11,≤ 100,C=C(C)C(=O)Nc1ccc(-c2sc3ncnc(N)c3c2-c2ccc(Oc3cccc(C)n3)cc2)cc1 [Example 801]
12,≤ 100,C=C(C)C(=O)Nc1cc(C)c(-c2c(-c3ccc(Oc4nccc(C)n4)cc3)c3c(N)ncnc3n2C)cc1F [Example 1066]
13,≤ 100,C#Cc1cc(OC)c(-c2c(-c3ncc(Oc4nccc(C)n4)cc3F)c3c(N)ncnc3n2C)cn1 [Example 1452]
14,≤ 100,C=C1CN(c2ccc(-c3c(-c4ccc(Oc5nccc(C)n5)cc4)c4c(N)ncnc4n3C)cc2)C1=O [Example 1109]
15,100 to 250,"C=C1CCN(c2ccc(-c3c(C4=CC[C@@H](C(=O)N5CCCC5)CC4)c4c(N)ncnc4n3C)cc2)C1=O (single isomer, unassigned) [Example 1134]"
16,≤ 100,C#Cc1cc(C)c(-c2c(-c3ccc(Oc4nccc(C)n4)c(F)c3)c3c(N)ncnc3n2C)c(F)n1 [Example 1322]
17,250 to 1000,C=C(C)C(=O)Nc1ccc(-c2c(C3=CCC(S(=O)(=O)C4CCCC4)CC3)c3c(N)ncnc3n2C)cc1 (centres unmarked) [Example 1047]
18,1000 to 100000,C=C(C)C(=O)Nc1ccc(-c2c(-c3ccc(C(=O)N[C@H]4C[C@@H](F)C4)c(COC)c3)c3c(N)ncnc3n2C)cc1 [Example 967]
19,≤ 100,C#Cc1cc(OC)c(-c2c(-c3ccc(Oc4nccc(C)n4)c(F)c3)c3c(Cl)ncnc3n2C)cn1 [Example 1403]
20,1000 to 100000,C#Cc1ccc(-c2c(-c3ccc(Oc4nccc(C)n4)c(F)c3)c3c(N)ncnc3n2C)c(C)n1 [Example 1168]
21,≤ 100,C#Cc1cc(OCCO)c(-c2[nH]c3ncnc(N)c3c2-c2ccc(Oc3nccc(C)n3)c(F)c2)cn1 [Example 1447]
22,≤ 100,C#Cc1cc2c(cn1)-c1c(-c3ccc(Oc4nccc(C)n4)c(F)c3)c3c(C)ncnc3n1CCC2 [Example 1445]
23,≤ 100,C=CC(=O)Nc1ccc(-c2c(-c3ccc(C(=O)NCC4(F)COC4)cc3)c3c(N)ncnc3n2C)cc1 [Example 1020]
24,≤ 100,"CN(C)C/C=C/C(=O)Nc1ccc(-c2c(C3=CC[C@@H](C(=O)N4CCCC4)CC3)c3c(N)ncnc3n2C)cc1 (single isomer, unassigned) [Example 1036]"
25,1000 to 100000,C=C(C)C(=O)Nc1ccc(-c2c(-c3cnn(-c4ccccc4)c3C)c3c(N)ncnc3n2C)cc1 [Example 1276]

# Same assay, conditions: SNU-16 cells
row,IC50 [nM],SMILES
1,1000 to 100000,C=C(C)C(=O)Nc1ccc(-c2c(C3=CC[C@](C)(C(=O)N4CCCC4)CC3)c3c(N)ncnc3n2C)cc1 [Example 1026]
2,≤ 100,C#Cc1ncc(-c2c(-c3ccc(Oc4nccc(C)n4)cc3)c3c(N)ncnc3n2C)cn1 [Example 1117]
3,≤ 100,"C#Cc1cc(C)c(-c2c(C3=CC[C@H](C(=O)N4CCC[C@H]4C#N)CC3)c3c(C)ncnc3n2C)c(C)n1 (atropisomer, axis not shown) [Example 1465]"

# Biological target: FGFR2 (Homo sapiens (Human), UniProt P21802)
# Sequence (P21802 22-821): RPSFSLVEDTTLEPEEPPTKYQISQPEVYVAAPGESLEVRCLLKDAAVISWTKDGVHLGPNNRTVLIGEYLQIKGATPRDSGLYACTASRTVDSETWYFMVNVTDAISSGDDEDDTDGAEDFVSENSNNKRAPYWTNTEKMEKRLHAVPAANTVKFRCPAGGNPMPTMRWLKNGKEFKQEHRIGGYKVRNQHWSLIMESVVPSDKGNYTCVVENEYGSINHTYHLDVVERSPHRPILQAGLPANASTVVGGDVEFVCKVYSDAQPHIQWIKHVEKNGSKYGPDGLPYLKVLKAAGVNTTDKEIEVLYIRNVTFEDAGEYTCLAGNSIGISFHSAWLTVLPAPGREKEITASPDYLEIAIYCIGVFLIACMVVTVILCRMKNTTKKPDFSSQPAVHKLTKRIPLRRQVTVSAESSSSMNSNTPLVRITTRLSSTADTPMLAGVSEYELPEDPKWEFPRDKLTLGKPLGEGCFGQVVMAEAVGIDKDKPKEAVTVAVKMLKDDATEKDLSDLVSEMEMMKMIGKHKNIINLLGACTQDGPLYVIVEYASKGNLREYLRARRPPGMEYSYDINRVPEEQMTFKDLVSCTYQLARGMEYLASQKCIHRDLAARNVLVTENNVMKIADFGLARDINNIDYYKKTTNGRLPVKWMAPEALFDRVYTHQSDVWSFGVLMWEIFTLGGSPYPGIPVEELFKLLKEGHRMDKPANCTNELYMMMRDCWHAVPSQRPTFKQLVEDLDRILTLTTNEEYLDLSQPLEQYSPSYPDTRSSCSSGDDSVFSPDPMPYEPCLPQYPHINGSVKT
# Experiment: Biochemical FGFR2 Caliper assay
# Conditions: not given
row,IC50 [nM],SMILES
1,1000 to 100000,"C#Cc1ccc(-c2c(C3=CC[C@@H](C(=O)N4CCCC4)CC3)c3cncnc3n2C)c(C)n1 (single isomer, unassigned) [Example 1208]"
2,< 100,C=C(C)c1nc(-c2ccc(-c3c(-c4ccccc4)c4c(N)ncnc4n3C)cc2)no1 [Example 1172]
3,< 100,C#Cc1ccc(-c2c(-c3ccc(Oc4nccc(C)n4)c(F)c3)c3c(N)ncnc3n2C(C)C)c(C)n1 [Example 1214]
4,1000 to 100000,C=C(C)C(=O)Nc1ccc(-c2c(C3=CC[C@](C)(C(=O)N4CCCC4)CC3)c3c(N)ncnc3n2C)cc1 [Example 1026]
5,250 to 1000,C#Cc1cc(C)c(-c2c(C3=CC[C@H](C(=O)N4CCC[C@H]4C)CC3)c3c(N)ncnc3n2C)cn1 [Example 1249]
6,< 100,C#Cc1cc2c(cn1)-c1c(-c3ccc(Oc4nccc(C)n4)cc3)c3c(N)ncnc3n1CCC2 [Example 1391]
7,1000 to 100000,C=C(C)C(=O)Nc1ccc(-c2c(-c3ccc4c(C(=O)NCC5CC5)n[nH]c4c3)c3c(N)ncnc3n2C)cc1 [Example 1324]
8,< 100,"C=C(C)C(=O)Nc1ccc(-c2c(C3=CC[C@]4(CC3)Cc3ccc(C)nc3C4=O)c3c(N)ncnc3n2C)cc1 (single isomer, unassigned) [Example 1367]"
9,< 100,C#Cc1cnc2c(cc(-c3c(-c4ccc(Oc5nccc(C)n5)c(F)c4)c4c(N)ncnc4n3C)n2C)n1 [Example 1413]
10,250 to 1000,C#Cc1cc(-c2c(-c3ccccc3)c3c(N)ncnc3n2C)ccn1 [Example 1193]
11,1000 to 100000,"C=CC(=O)N[C@@H]1Cc2ccc(-c3c(-c4ccc(Oc5nccc(C)n5)cc4)c4c(N)ncnc4n3C)cc2C1 (single isomer, unassigned) [Example 927]"
12,< 100,C=C(C)C(=O)Nc1ccc(-c2sc3ncnc(N)c3c2-c2ccc(Oc3cccc(C)n3)cc2)cc1 [Example 801]
13,< 100,C=C(C)C(=O)Nc1cc(C)c(-c2c(-c3ccc(Oc4nccc(C)n4)cc3)c3c(N)ncnc3n2C)cc1F [Example 1066]
14,< 100,C#Cc1cc(OC)c(-c2c(-c3ncc(Oc4nccc(C)n4)cc3F)c3c(N)ncnc3n2C)cn1 [Example 1452]
15,< 100,C=C1CN(c2ccc(-c3c(-c4ccc(Oc5nccc(C)n5)cc4)c4c(N)ncnc4n3C)cc2)C1=O [Example 1109]
16,250 to 1000,"C=C1CCN(c2ccc(-c3c(C4=CC[C@@H](C(=O)N5CCCC5)CC4)c4c(N)ncnc4n3C)cc2)C1=O (single isomer, unassigned) [Example 1134]"
17,< 100,C#Cc1cc(C)c(-c2c(-c3ccc(Oc4nccc(C)n4)c(F)c3)c3c(N)ncnc3n2C)c(F)n1 [Example 1322]
18,250 to 1000,C=C(C)C(=O)Nc1ccc(-c2c(C3=CCC(S(=O)(=O)C4CCCC4)CC3)c3c(N)ncnc3n2C)cc1 (centres unmarked) [Example 1047]
19,1000 to 100000,C=C(C)C(=O)Nc1ccc(-c2c(-c3ccc(C(=O)N[C@H]4C[C@@H](F)C4)c(COC)c3)c3c(N)ncnc3n2C)cc1 [Example 967]
20,< 100,C#Cc1cc(OC)c(-c2c(-c3ccc(Oc4nccc(C)n4)c(F)c3)c3c(Cl)ncnc3n2C)cn1 [Example 1403]
21,< 100,C#Cc1ccc(-c2c(-c3ccc(Oc4nccc(C)n4)c(F)c3)c3c(N)ncnc3n2C)c(C)n1 [Example 1168]
22,100 to 250,C#Cc1ncc(-c2c(-c3ccc(Oc4nccc(C)n4)cc3)c3c(N)ncnc3n2C)cn1 [Example 1117]
23,< 100,C#Cc1cc(OCCO)c(-c2[nH]c3ncnc(N)c3c2-c2ccc(Oc3nccc(C)n3)c(F)c2)cn1 [Example 1447]
24,< 100,C#Cc1cc2c(cn1)-c1c(-c3ccc(Oc4nccc(C)n4)c(F)c3)c3c(C)ncnc3n1CCC2 [Example 1445]
25,< 100,"C#Cc1cc(C)c(-c2c(C3=CC[C@H](C(=O)N4CCC[C@H]4C#N)CC3)c3c(C)ncnc3n2C)c(C)n1 (atropisomer, axis not shown) [Example 1465]"
26,100 to 250,C=CC(=O)Nc1ccc(-c2c(-c3ccc(C(=O)NCC4(F)COC4)cc3)c3c(N)ncnc3n2C)cc1 [Example 1020]
27,250 to 1000,"CN(C)C/C=C/C(=O)Nc1ccc(-c2c(C3=CC[C@@H](C(=O)N4CCCC4)CC3)c3c(N)ncnc3n2C)cc1 (single isomer, unassigned) [Example 1036]"
28,1000 to 100000,C=C(C)C(=O)Nc1ccc(-c2c(-c3cnn(-c4ccccc4)c3C)c3c(N)ncnc3n2C)cc1 [Example 1276]
